Patent US3996359A, “Novel stereoisomeric component A of stereoisomeric mixtures of 2'-unsymmetrical 16,17-methylenedioxy steroid 21-acylates, compositions thereof, and method of treating therewith” (AB Bofors, priority 1972, dated 1976)

System: rats subjected to adrenalectomy (granuloma around implanted cotton wads)
Assay: granulom test (cotton-pellet test) on rats subjected to adrenalectomy: granuloma growth, thymus weight, body weight increase
Assay type: in vivo, rat (Sprague-Dawley)
Conditions: for Dose required to obtain 50% inhibition of Granuloma growth: Table 3, adrenalectomized young male Sprague-Dawley rats, topical in implanted cotton wads, day 8; for Dose required to obtain 25% inhibition of Body weight Increase / Dose required to obtain 50% inhibition of Thymus weight: 11520 min
Description: In the following this active stereoisomeric component will always be designated B. As regards the steroids referred to in connection with the present invention the stereoisomeric mixture as well as the individual stereoisomeric components A and B have been investigated with regard to antiinflammatory activity in granulom test on rats subjected to adrenalectomy. The experimental procedure used corresponds largely to that described by G. Engelhardt: Arzneimittel-Forschung, 13, p. 588, 1963. According to this procedure the test substances are applied topically in the implanted cottom wads. It is thereby possible to study the local antiinflammatory effect in granulomas and also systemic effects in the form of retrogression of thymus and inhibition of bodyweight growth.
Young male rats of the Sprague-Dawley strain weighing about 110-130 g were subjected to adrenalectomy under ether narcosis. Two sterilized cottom wads of each about 6 mg were implanted simultaneously subcutaneously on the lateral side of the spinal. After awakening the animals were stored 5 per cage and were supplied with normal food and 1% sodium chloride solution as drinking water. On the eighth test day the animals were sacrificed by ether narcosis. The granuloma formed around the cotton wads were carefully recovered and thymus and body weights were measured. The two granuloma from each animal were dried over night at 80° C and weighed. After subtraction of the initial weight of the cotton wads the weight increase was used as a measure of the granulom growth.
The test substances were used dissolved in ethyl acetate. Under aseptic conditions 0.05 ml of said solutions were injected into each of the cotton wads, whereafter the solvent was allowed to evaporate in the desiccator. Normally 3 concentrations of each test substance with the standard doses 3.3, 30 and 270 γ/animal were investigated. Each test group normally comprised 10 rats. The cotton wads of the control group were injected with only ethyl acetate, but were in other respects treated in the same way. When considering the effects of the test substances the average values of granulom growth, thymus weight and body weight increase day 0-8 were measured in each group in absolute figures and in % of the corresponding figure of the control group. Dose-response curves were drafted and used for estimating the doses giving 50 % reduction of granulom growth and of thymus weight and 25 % decrease of body weight increase.
The following Table 4 discloses the results of the cotton-pellet test hereinbefore described, giving in addition figures for the therapeutic ratios, that is, the ratios of the ED50 for thymus weight inhibition divided by the ED50 for granuloma formation inhibition, and the ED25 for body weight increase inhibition over the ED50 for granuloma formation inhibition. As will be recognized, the higher the number for the therapeutic ratio, the more favorable the therapeutic ratio. […] As will be noted for the table, the therapeutic ratio for thymus over granuloma for the Component A esters is 4.2, 7.1, 4.5, 2.6, 2.2, 1.7, 2.5 and 1.7 times as good as it is for the corresponding Component B ester isomer, whereas the therapeutic ratio for the Component A ester isomer as far as body weight is granuloma 2.7, 3.3, 9.8, 6.4, 2.3, 2.8, 3.3 and 2.8 times as favorable as for the corresponding Component B ester isomer.

[1] = Table 4, ED25 body weight increase inhibition over ED50 granuloma formation inhibition
[2] = Table 4, ED50 thymus weight inhibition divided by ED50 granuloma formation inhibition

SMILES	Dose required to obtain 50% inhibition of Granuloma growth	ED25 body weight increase inhibition (rat, in vivo)	ED50 thymus weight inhibition (rat, in vivo)	Therapeutic ratio body weight/granuloma (rat, in vivo)	Therapeutic ratio thymus/granuloma (rat, in vivo)	Dose required to obtain 25% inhibition of Body weight Increase (rat, in vivo)	Dose required to obtain 50% inhibition of Thymus weight (rat, in vivo)	Therapeutic ratio body weight/granuloma [1]	Therapeutic ratio thymus/granuloma [2]
CCCC1O[C@@H]2C[C@H]3[C@@H]4CCC5=CC(=O)C=C[C@]5(C)[C@H]4[C@@H](O)C[C@]3(C)[C@]2(C(=O)COC(C)=O)O1 (single isomer, unassigned) [27 A]	< 3 γ/animal	100 µg/animal	100 µg/animal	> 33.3	> 33.3	100 γ/animal	100 γ/animal	–	–
CCCC1O[C@@H]2C[C@H]3[C@@H]4CCC5=CC(=O)C=C[C@]5(C)[C@H]4[C@@H](O)C[C@]3(C)[C@]2(C(=O)COC(C)=O)O1 (single isomer, unassigned) [27 B]	< 3 γ/animal	35 µg/animal	60 µg/animal	> 11.7	> 20.0	35 γ/animal	60 γ/animal	–	–
CCCC1O[C@@H]2C[C@H]3[C@@H]4CCC5=CC(=O)C=C[C@]5(C)[C@H]4[C@@H](O)C[C@]3(C)[C@]2(C(=O)COC(=O)c2cc3ccccc3o2)O1 (single isomer, unassigned) [28 A]	–	100 µg/animal	100 µg/animal	> 33.3	> 33.3	–	–	–	–
CCCC1O[C@@H]2C[C@H]3[C@@H]4CCC5=CC(=O)C=C[C@]5(C)[C@H]4[C@@H](O)C[C@]3(C)[C@]2(C(=O)COC(=O)c2cc3ccccc3o2)O1 (single isomer, unassigned) [28 B]	–	35 µg/animal	60 µg/animal	> 11.7	> 20.0	–	–	–	–
CC1O[C@@H]2C[C@H]3[C@@H]4CCC5=CC(=O)C=C[C@]5(C)[C@@]4(F)[C@@H](O)C[C@]3(C)[C@]2(C(=O)CO)O1 (stereo partly shown) [1 A+B]	120 γ/animal	–	–	–	–	> 270 γ/animal	270 γ/animal	–	–
CCCC1O[C@@H]2C[C@H]3[C@@H]4CCC5=CC(=O)C=C[C@]5(C)[C@H]4[C@@H](O)C[C@]3(C)[C@]2(C(=O)CO)O1 (stereo partly shown) [12 A+B]	100 γ/animal	–	–	–	–	80 γ/animal	80 γ/animal	–	–
CCCCCC1O[C@@H]2C[C@H]3[C@@H]4CCC5=CC(=O)C=C[C@]5(C)[C@H]4[C@@H](O)C[C@]3(C)[C@]2(C(=O)CO)O1 (stereo partly shown) [13 A+B]	10 γ/animal	–	–	–	–	90 γ/animal	175 γ/animal	–	–
CC1O[C@@H]2C[C@H]3[C@@H]4CCC5=CC(=O)C=C[C@]5(C)[C@@]4(F)[C@@H](O)C[C@]3(C)[C@]2(C(=O)COC(=O)c2cc3ccccc3o2)O1 (stereo partly shown) [16 A]	5 γ/animal	> 45 µg/animal	70 µg/animal	–	–	> 45 γ/animal	70 γ/animal	> 9.0	14.0
CC1O[C@@H]2C[C@H]3[C@@H]4CCC5=CC(=O)C=C[C@]5(C)[C@@]4(F)[C@@H](O)C[C@]3(C)[C@]2(C(=O)COC(=O)c2cc3ccccc3o2)O1 (stereo partly shown) [16 B]	3 γ/animal	10 µg/animal	10 µg/animal	–	–	10 γ/animal	10 γ/animal	3.3	3.3
CC1O[C@@H]2C[C@H]3[C@@H]4C[C@H](F)C5=CC(=O)C=C[C@]5(C)[C@@]4(F)[C@@H](O)C[C@]3(C)[C@]2(C(=O)COC(=O)c2cc3ccccc3o2)O1 (stereo partly shown) [23 A]	–	10 µg/animal	10 µg/animal	–	–	–	–	> 3.3	> 3.3
